The METLIN SMRT retention time set (Domingo-Almenara et al. 2019)

Assay: gradient 5% acetonitrile 3 min, to 50% in 2 min, to 85% in 15 min, held 3 min, 100 µL/min
Conditions: column: Zorbax Extend-C18 2.1 x 50 mm; eluents: water / acetonitrile, 0.1% formic acid
In short: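 Data were gathered over 3 months by HPLC coupled to a quadrupole time-of-flight mass spectrometer, operated in positive and negative ionization mode. Mixtures of ~100 pure standards ran on a Zorbax Extend-C18 column (2.1 × 50 mm, 1.8 μm) at 100 μL/min, with water and acetonitrile each containing 0.1% formic acid and dead and dwell volumes of 40 μL and 900 μL. Retention time was read from adduct peaks picked by computer and checked manually.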

| RP-LC retention time [s] | Structure (SMILES) |
| --- | --- |
| 921 | CCCn1cc(S(=O)(=O)Nc2cc(C)ccc2F)c2cccnc21 |
| 1140 | CSc1ccc(-c2noc(CN3C(=O)C(C)Oc4ccccc43)n2)cc1 (configuration not stated) |
| 910 | CCOc1ccc(-n2c(=O)c3sccc3n(Cc3nc(-c4ccccc4OC)no3)c2=O)cc1 |
| 760 | COc1ccc(NC(=O)C2CCN(C(=O)c3ncn4c3COC(c3ccc(OC)cc3)C4)CC2)cc1 (configuration not stated) |
| 830 | COCCCNC(=O)C1(C)Cn2nc(-c3ccccc3)cc2C(=O)N1c1ccccc1F (configuration not stated) |
| 619 | CSc1ccc(NC(=O)CCNc2cnc3cnccn23)cc1 |
| 546 | COC[C@@H]1CN(c2cnccn2)C[C@H]1C(=O)NCC#N |
| 755 | Cc1ccc(C(=O)CC2(O)C(=O)Nc3ccc(C)cc32)cc1 (configuration not stated) |
| 865 | COc1ccccc1C(=O)N1CCC2(CC1)N=C(c1ccc(Cl)cc1)NO2 |
| 913 | CC1CCc2ccccc2N1C(=O)c1cccs1 (configuration not stated) |
| 782 | Cc1ccc2[nH]c(C(=O)NC3CC3)cc2c1 |
| 727 | Cc1nc2cc(-c3ccc(Cl)cc3)nn2c(C)c1CCC(=O)N1CCN(c2ccccn2)CC1 |
| 778 | Cc1ccc(NC(=O)NC2CCN(c3ccc(F)cc3)C2=O)c(C)c1 (configuration not stated) |
| 741 | Cn1cc(CCNS(=O)(=O)c2ccccc2Br)c2cccnc21 |
| 954 | Cc1nn2c(nnc3c(=O)n(CCc4c[nH]c5ccccc45)ccc32)c1-c1ccc(F)cc1 |
| 1270 | O=C(Nc1ccccc1-c1nc2ccccc2s1)c1c(F)cccc1F |
| 794 | CCn1cc(S(=O)(=O)Nc2cccc(OC)c2)c2cccnc21 |
| 628 | CN(C)c1ccc(CNC(=O)c2ccc3c(c2)N(C)C(=O)C2CCCCN32)cc1 (configuration not stated) |
| 684 | Cc1cccc(-c2ncccc2CNS(=O)(=O)Cc2ccccc2)c1 |
| 734 | CCC(C(=O)N1CCN(c2ccccn2)CC1)n1ccc2cc(S(=O)(=O)N3CCCCC3)ccc21 (configuration not stated) |
| 885 | O=C(C1=NN(Cc2ccc(F)cc2)c2ccccc2S1(=O)=O)N1CCCCC1 |
| 715 | CCn1c(=O)n(CCc2ccccc2)c2cncnc21 |

More lines, now with the values behind:

| Structure (SMILES) | RP-LC retention time [s] |
| --- | --- |
| CCOc1ccc(-c2n[nH]c3c2C(c2ccc(O)c(OC)c2)NC3=O)cc1 (configuration not stated) | 637 |
| Cc1ccc(N2C(=O)CN(S(C)(=O)=O)CC2(C)C(=O)NC2CCCCCC2)cc1F (configuration not stated) | 905 |
| O=C(Nc1cc(F)ccc1F)C1CCCN(c2ncnc3c2nc2n3CCCCC2)C1 (configuration not stated) | 774 |
| COc1ccc(C(=O)NC2CCN(c3cc(C)cc(C)c3)C2=O)cc1F (configuration not stated) | 901 |
| COc1ccc(-c2nc(C3CC(=O)N(c4ccc(F)c(Cl)c4)C3)no2)c(OC)c1 (configuration not stated) | 1000 |
| CCCCN(C)C(=O)c1cc2c(s1)N(CC)CCCC2 | 1100 |
| COc1ccccc1-c1nc(Cn2nnc(-c3nc(-c4ccc(C)c(C)c4)no3)c2C)c(C)o1 | 1240 |
| CCCNC(=O)C1CCCN(c2nc3ncn(CC(=O)NCc4cccs4)c(=O)c3s2)C1 (configuration not stated) | 657 |
| COc1ccc(OC)c(S(=O)(=O)N2CCc3nc(-c4ccccc4)[nH]c3C2)c1 | 536 |
| COc1cc(Cl)ccc1-c1nc(-c2ccc3c(c2)oc(=O)n3C(C)C)no1 | 1220 |
| CCC(=O)Nc1c(C)noc1/C=C/c1ccc(S(=O)(=O)N2CCC(C)CC2)s1 | 919 |
| CCOC(=O)c1c(C)c(CCC(=O)NCc2ccc3c(c2)OCO3)c(C)n1C | 865 |
| COc1ccc2cc(C(=O)N3CCC(CC(=O)NCC4CCCO4)CC3)[nH]c2c1 (configuration not stated) | 681 |
| CC(=O)N1CCC2(CC1)CC(CCO)CCO2 (configuration not stated) | 575 |
| Cc1ccc2[nH]c(C(=O)NC3CCN(C)CC3)cc2c1 | 845 |
